The values that follow come from patent US20030109444A1, “Bone anti-resorptive compounds” (priority 2001, published 2003).

This assay relates to osteoclast precursors (bone marrow macrophages). As to the kind of experiment: Osteoclast differentiation of bone marrow macrophage cultures monitored by TRAP activity. The assay is classed as cell-based. Conditions: cell cultures of osteoclast precursors (mouse BMMs) with M-CSF, increasing concentrations of peptide, FIG. 1. The protocol: The effect of a partial AA″ loop polypeptide of RANKL on TRAP activity. Wild type C3H/HENJ mice were purchased from Harlan Industries (Indianapolis, Ind.). In order to establish a cell culture of osteoclast precursors, bone marrow macrophages (BMMs) were isolated from whole bone marrow of four to six week old mice and incubated in tissue culture dishes at 37° C. in 5% CO2. After 24 hours in culture, the non-adherent cells were collected and layered on a Ficoll Hypaque gradient and the cells at the gradient interface were collected. Cells were replated at 65,000/cm^2 in α-minimal essential medium, supplemented with 10% heat inactivated fetal bovine serum, at 37° C. in 5% CO2 in the presence of recombinant mouse M-CSF (10 ng.ml). The cell cultures were then treated either with the increasing concentrations of polypeptide of SEQ ID NO 1 (subset of AA″ loop) or with a negative control scrambled peptide having the same molecular weight as the test compound. […] This phosphatase is an osteoclast specific enzyme and its activity corresponds with osteoclast differentiation. TRAP activity is measured by quantitating its ability to cleave a substrate in a color-producing reaction.

“Also recorded” adds a separate entry of the source.

Regarding PSGSHKVTLSS [SEQ ID NO 1], the TRAP activity result was “decreases TRAP activity”. Besides, the “inhibition of RANKL-induced osteoclast differentiation as monitored by TRAP” value (listed as test compound) is “competitively inhibits the ability of RANKL to induce osteoclast differentiation; also recorded: dose-dependent”.
